Results from PubChem BioAssay AID1963833 (Molecular Pharmacology Branch, DTP, NCI, 2024).

Test system: 883617-216-R-J1-PDC complex spheroid viability
Assay: Anticancer human tumor 883617-216-R-J1-PDC patient-derived bladder carcinoma cell line growth inhibition [POLQ]
Settings: for IC50: curve of first compound; for viability, T/C: stronger effect = lower value
Procedure: Multicellular complex tumor spheroid response to Polymerase (POL) inhibitors (novobiocin, ART-558, RP6685) in combination with a variety of drugs and investigational agents in selected tumor cell lines
The POL inhibitors (novobiocin, ART-558, and RP6685) were evaluated both individually and in combination with standard of care and investigational anticancer small molecules within a complex spheroid model of solid tumors. . Complex spheroids include a stromal component modeled by human endothelial cells (HUVEC) and fibroblasts modeled by human mesenchymal stem cells (MSCs). The concentration ranges selected for each drug and investigational agent were based upon clinically achievable concentrations if the clinical Cmax of the agent was known.
Compounds. The drugs and investigational agents: novobiocin (NSC847541), ART-558 (NSC835418), RP-6685 (NSC848927), peposertib (NSC802822), ceralasertib (NSC780249), elimusertib (NSC800525), camonsertib (NSC841442), AZD-1390 (NSC803789), olaparib (NSC753686), talazoparib (NSC767125), rucaparib (NSC756644), sotorasib (NSC818433), MRTX-1133 (NSC836407), SN-38 (NSC673596), topotecan (NSC609699), epotoside (NSC141540), doxorubicin (NSC123127), gemcitabine (NSC613327), 5-fluorouracil (NSC19893), paclitaxel (NSC125973), vemurafenib (NSC761431), MSA-2 (NSC828583), SN-011 (NSC837082), adavosertib (NSC754352), prexasertib (NSC758257), carboplatin (NSC241240) and oxaliplatin (NSC266046), were obtained from the National Cancer Institute (NCI) Developmental Therapeutics Program Chemical Repository (21). The FDA-approved anticancer drug set is available from the Developmental Therapeutics Program at https://dtp.cancer.gov/organization/dscb/obtaining/. […] The stock solutions were prepared in dimethyl sulfoxide (DMSO, Sigma-Aldrich, St. Louis, MO, cat. D2650), except for the platinum compounds which were prepared in saline (Quality Biological, Gaithersburg, MD, cat. 114-055-101), at 800-fold the tested concentration and stored at -70 degrees C prior to their use. All drugs and investigational agents were tested over a range starting from a high concentration at or near the clinical Cmax and decreasing in half-log increments. If the clinical Cmax for an agent had not been determined, the highest concentration tested was 10 microM, except for SN-38, which was tested at a high concentration of 1 microM.
Cell Culture. All cells were maintained in an incubator at 37 degrees C and 5% CO2 with 95% humidity. The PDC lines were cultured according to standard operating procedures established by the NCI PDMR (https://pdmr.cancer.gov). Table 3 of the manuscript, lists the cell lines along with the number of the three cell types plated to form the mct-spheroids and media for tumor cell growth. After thawing, all PDC lines, except 997537-175-T-J1-PDC and 415267-285-R-J2-PDC, were cultured in Matrigel-coated flasks prepared with a working solution of 1X Ham's F-12 nutrient mix, without supplementation (Thermo Fisher Scientific, cat. 11765054), 100 U/mL penicillin-streptomycin (Thermo Fisher Scientific, cat. 15140122), and 2.5% Matrigel (Corning Inc., Corning, NY, cat. 354248) for the first three passages. The two PDC lines 997537-175-T-J1-PDC and 415267-285-R-J2-PDC were cultured on uncoated flasks. The 857933-349-R-J2-PDC line was cultured in 6C/Colon 1B media containing advanced DMEM/F-12 (Thermo Fisher Scientific, cat. 12634028), 10 mM HEPES (Thermo Fisher Scientific, cat. 15630080), 1X GlutaMAX supplement (Thermo Fisher Scientific, cat. 35050061), 0.1 mg/mL primocin (InvivoGen, San Diego, CA, cat. ant-pm-2), 10% defined fetal bovine serum, heat inactivated (HyClone Laboratories Inc., Logan, UT, cat. SH30070.03HI), 50% L-WRN conditioned media (ATCC, cat. CRL-3276), 1.25 mM N-Acetyl-L-cysteine (Sigma-Aldrich, cat. A9165), 10 mM nicotinamide (Sigma-Aldrich, cat. N0636), 1X B-27 supplement (Thermo Fisher Scientific, cat. 17504044), 1X N-2 supplement (Thermo Fisher Scientific, cat. […]

[1] = second compound 0.0316 µM, first compound 0.0316 µM
[2] = second compound 0.0316 µM, first compound 0.1 µM
[3] = second compound 0.0316 µM, first compound 0.316 µM
[4] = second compound 0.0316 µM, first compound 1 µM
[5] = second compound 0.1 µM, first compound 0.0316 µM
[6] = second compound 0.1 µM, first compound 0.1 µM
[7] = second compound 0.1 µM, first compound 0.316 µM
[8] = second compound 0.1 µM, first compound 1 µM
[9] = second compound 0.316 µM, first compound 0.0316 µM
[10] = second compound 0.316 µM, first compound 0.1 µM
[11] = second compound 0.316 µM, first compound 0.316 µM
[12] = second compound 0.316 µM, first compound 1 µM
[13] = second compound 1 µM, first compound 0.0316 µM
[14] = second compound 1 µM, first compound 0.1 µM
[15] = second compound 1 µM, first compound 0.316 µM
[16] = second compound 1 µM, first compound 1 µM
[17] = second compound 3.16 µM, first compound 0.0316 µM
[18] = second compound 3.16 µM, first compound 0.1 µM
[19] = second compound 3.16 µM, first compound 0.316 µM
[20] = second compound 3.16 µM, first compound 1 µM
[21] = second compound 10 µM, first compound 0.0316 µM
[22] = second compound 10 µM, first compound 0.1 µM
[23] = second compound 10 µM, first compound 0.316 µM
[24] = second compound 10 µM, first compound 1 µM
[25] = second compound 0.0316 µM, first compound 3.16 µM
[26] = second compound 0.0316 µM, first compound 10 µM
[27] = second compound 0.1 µM, first compound 3.16 µM
[28] = second compound 0.1 µM, first compound 10 µM
[29] = second compound 0.316 µM, first compound 3.16 µM
[30] = second compound 0.316 µM, first compound 10 µM
[31] = second compound 1 µM, first compound 3.16 µM
[32] = second compound 1 µM, first compound 10 µM
[33] = second compound 3.16 µM, first compound 3.16 µM
[34] = second compound 3.16 µM, first compound 10 µM
[35] = second compound 10 µM, first compound 3.16 µM
[36] = second compound 10 µM, first compound 10 µM
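Also: spheroids exposed to compounds for seven days before readout.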
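For viability, T/C in this document: 100% = DMSO vehicle control viability.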

C=CCn1c(=O)c2cnc(Nc3ccc(N4CCN(C)CC4)cc3)nc2n1-c1cccc(C(C)(C)O)n1 + Nc1ccc(C#CCN(C(=O)Cc2ncc(C(F)(F)F)cc2C(F)(F)F)c2ccc(F)cc2)nn1
IC50 (second compound 0.0316 µM): > 1 µM | IC50 (second compound 0.1 µM): > 1 µM | IC50 (second compound 0.316 µM): > 1 µM | IC50 (second compound 1 µM): 0.978 µM | IC50 (second compound 3.16 µM): > 1 µM | IC50 (second compound 10 µM): 0.924 µM | viability, T/C (second compound 0.0316 µM, first compound 0.00316 µM): 102% | viability, T/C (second compound 0.0316 µM, first compound 0.01 µM): 98.9% | viability, T/C [1]: 84.3% | viability, T/C [2]: 113% | viability, T/C [3]: 96.4% | viability, T/C [4]: 59.8% | viability, T/C (second compound 0.1 µM, first compound 0.00316 µM): 100% | viability, T/C (second compound 0.1 µM, first compound 0.01 µM): 95.6% | viability, T/C [5]: 95.8% | viability, T/C [6]: 94.1% | viability, T/C [7]: 88.3% | viability, T/C [8]: 86.8% | viability, T/C (second compound 0.316 µM, first compound 0.00316 µM): 102% | viability, T/C (second compound 0.316 µM, first compound 0.01 µM): 115% | viability, T/C [9]: 106% | viability, T/C [10]: 108% | viability, T/C [11]: 92.4% | viability, T/C [12]: 63.6% | viability, T/C (second compound 1 µM, first compound 0.00316 µM): 101% | viability, T/C (second compound 1 µM, first compound 0.01 µM): 96.5% | viability, T/C [13]: 81.1% | viability, T/C [14]: 101% | viability, T/C [15]: 103% | viability, T/C [16]: 49% | viability, T/C (second compound 3.16 µM, first compound 0.00316 µM): 115% | viability, T/C (second compound 3.16 µM, first compound 0.01 µM): 109% | viability, T/C [17]: 85.7% | viability, T/C [18]: 99.3% | viability, T/C [19]: 115% | viability, T/C [20]: 58.4% | viability, T/C (second compound 10 µM, first compound 0.00316 µM): 126% | viability, T/C (second compound 10 µM, first compound 0.01 µM): 101% | viability, T/C [21]: 108% | viability, T/C [22]: 116% | viability, T/C [23]: 128% | viability, T/C [24]: 45.1%

CC1COCCN1c1cc(C2(O)CC3CCC(C2)O3)c2cnn(-c3ccn[nH]3)c2n1 (stereo unspecified) + Nc1ccc(C#CCN(C(=O)Cc2ncc(C(F)(F)F)cc2C(F)(F)F)c2ccc(F)cc2)nn1
IC50 (second compound 0.0316 µM): 0.214 µM | IC50 (second compound 0.1 µM): 0.168 µM | IC50 (second compound 0.316 µM): 0.414 µM | IC50 (second compound 1 µM): 0.175 µM | IC50 (second compound 3.16 µM): 0.218 µM | IC50 (second compound 10 µM): 0.269 µM | viability, T/C [1]: 70.8% | viability, T/C [2]: 50.9% | viability, T/C [3]: 48% | viability, T/C [4]: 38.4% | viability, T/C [25]: 35% | viability, T/C [26]: 22.9% | viability, T/C [5]: 75.2% | viability, T/C [6]: 50.6% | viability, T/C [7]: 40.9% | viability, T/C [8]: 44.2% | viability, T/C [27]: 34.9% | viability, T/C [28]: 23.8% | viability, T/C [9]: 68.8% | viability, T/C [10]: 63.2% | viability, T/C [11]: 47.8% | viability, T/C [12]: 42.9% | viability, T/C [29]: 37.5% | viability, T/C [30]: 21.9% | viability, T/C [13]: 60.9% | viability, T/C [14]: 51.9% | viability, T/C [15]: 45.1% | viability, T/C [16]: 39.9% | viability, T/C [31]: 32.3% | viability, T/C [32]: 20.9% | viability, T/C [17]: 67% | viability, T/C [18]: 60.2% | viability, T/C [19]: 45.2% | viability, T/C [20]: 33.8% | viability, T/C [33]: 38.7% | viability, T/C [34]: 26.9% | viability, T/C [21]: 73.1% | viability, T/C [22]: 53.1% | viability, T/C [23]: 53.1% | viability, T/C [24]: 41.5% | viability, T/C [35]: 39.2% | viability, T/C [36]: 35.3%

CCCS(=O)(=O)Nc1ccc(F)c(C(=O)c2c[nH]c3ncc(-c4ccc(Cl)cc4)cc23)c1F + Nc1ccc(C#CCN(C(=O)Cc2ncc(C(F)(F)F)cc2C(F)(F)F)c2ccc(F)cc2)nn1
IC50 (second compound 0.0316 µM): 9.41 µM | IC50 (second compound 0.1 µM): 8.35 µM | IC50 (second compound 0.316 µM): > 10 µM | IC50 (second compound 1 µM): > 10 µM | IC50 (second compound 3.16 µM): > 10 µM | IC50 (second compound 10 µM): > 10 µM | viability, T/C [1]: 91.8% | viability, T/C [2]: 104% | viability, T/C [3]: 91.6% | viability, T/C [4]: 102% | viability, T/C [25]: 106% | viability, T/C [26]: 47.2% | viability, T/C [5]: 98.2% | viability, T/C [6]: 86% | viability, T/C [7]: 109% | viability, T/C [8]: 112% | viability, T/C [27]: 85% | viability, T/C [28]: 43.5% | viability, T/C [9]: 104% | viability, T/C [10]: 92.8% | viability, T/C [11]: 103% | viability, T/C [12]: 111% | viability, T/C [29]: 91.7% | viability, T/C [30]: 54.5% | viability, T/C [13]: 111% | viability, T/C [14]: 103% | viability, T/C [15]: 89.2% | viability, T/C [16]: 92.4% | viability, T/C [31]: 88.7% | viability, T/C [32]: 50.7% | viability, T/C [17]: 111% | viability, T/C [18]: 102% | viability, T/C [19]: 110% | viability, T/C [20]: 98.3% | viability, T/C [33]: 99.6% | viability, T/C [34]: 59.7% | viability, T/C [21]: 106% | viability, T/C [22]: 107% | viability, T/C [23]: 118% | viability, T/C [24]: 125% | viability, T/C [35]: 95.2% | viability, T/C [36]: 57.6%
